Data: publication PMC10657792, “Downstream Allosteric Modulation of NMDA Receptors by 3-Benzazepine Derivatives” (Molecular Neurobiology, 2023)
Where “and” joins values, the source holds several entries; their conditions need not be identical. Equal values may be shown once.

Columns and labels:
Test in all cases: TEVC recording in X. laevis oocytes, GluN2B mutant screening
Assay type in all cases: cell-based
GluN1a wt/ GluN2B F114A = GluN1a wt/ GluN2B F114A (Rattus norvegicus, UniProt P35439+Q00960, F114A); details: fitted curve
GluN1a wt/ GluN2B F176A = GluN1a wt/ GluN2B F176A (Rattus norvegicus, UniProt P35439+Q00960, F176A); details: fitted curve
Procedure: (§1) Single point mutations were incorporated into template DNA (GluN1-1b wt/ pSGEM and GluN2B wt/ pSGEM) by using the QuikChange II XL site-directed mutagenesis kit (Agilent Technologies, Germany). Mutagenesis primers were designed using the QuikChange Primer Design Program (Agilent) and provided by Microsynth (Microsynth AG, Balgach, Switzerland). For mutation of the desired amino acid in the gene, PCR amplification was performed with the respective mutagenesis primers (Eppendorf MasterCycler Gradient, Eppendorf Hamburg, Germany). Mutations were verified by automated DNA sequencing. Constructs were linearized with PacI (GluN1) or NheI (GluN2B). cRNA was prepared byin vitrotranscription using the mMessage mMachine T7 kit (Life Technologies, Darmstadt, Germany).
(§2) The NMDAR was expressed in stage V and VI oocytes originated from X. laevis. Oocytes were provided by Ecocyte Bioscience (Dortmund, Germany), and equimolar amounts of wild-type and mutated GluN1 and GluN2B cRNA were injected (0.8 ng each). The oocytes were incubated in Barth’s solution, containing (mmol l^−1): 88 NaCl, 1 KCl, 0.4 CaCl2, 0.33 Ca(NO3)2, 0.6 MgSO4, 5 TRIS–HCl, 2.4 NaHCO3, supplemented with 80 mg l^−1 theophylline, 63 mg l^−1 benzylpenicillin, 40 mg l^−1 streptomycin, and 100 mg l^−1 gentamycin and maintained at 18 °C until usage. After injection, the oocytes were incubated for 5 days at 18 °C. Subsequently, the activity of the expressed NMDARs in the oocytes was recorded by two-electrode voltage clamp (TEVC).
(§3) The compounds were retrieved as 10 mM stock solutions in DMSO and were subsequently diluted with agonist solution and adjusted to 0.1% DMSO concentration. Inhibition of each compound was measured via TEVC in X. laevis oocytes at room temperature using a Turbo Tec 10CX amplifier (NPI electronic, Tamm, Germany), NI USB 6221 DA/AD Interface (National Instruments, Austin, USA), and GePulse Software (Dr. Michael Pusch, Genova, Italy). Ba^2+-Ringer, consisting of 10 mM HEPES, 90 mM NaCl, 1 mM KCl, and 1.5 mM BaCl2, adjusted to pH 7.4, was used for TEVC measurements. Agonist solution containing 10 µM glycine and 10 µM (S)-glutamate was prepared in Ba^2+-Ringer, and the measurements were performed at a holding potential of − 70 mV, using electrodes with a glass capillary filled with 3 M KCl and a resistance between 0.5 and 1.5 MΩ. The compounds were tested by applying ascending concentrations, ranging from 1 to 30,000 nM, in at least six oocytes. Example traces for all recorded conditions can be found in Supplementary Figs. S2–S9.
(§4) TEVC data were analyzed using Ana (Dr. Michael Pusch, Genova, Italy), and statistics were performed using OriginPro 2020 (OriginLab Corporation, Northampton, USA). The inhibitory effect of each compound is calculated using the following equation: inhibition=1-Ic-Ih/Ia-Ih where Ih describes the current in the absence of agonists; Ia represents the steady-state current in the presence of the agonists; and Ic is defined as the steady-state after binding of agonist and compound. All dose response curves are fitted to the following logistic equation: y=A1-A2/1+x/x0^p+A2 where A1 describes the minimal inhibition of a compound and was set to 0; A2 represents the maximal inhibition of a compound; p is the slope of the curve; x0 is defined as the concentration at half-maximal inhibition; and x is the tested concentration. Data were statistically analyzed by one-way ANOVA and Tukey post-hoc mean comparison test in OriginPro 2020 (OriginLab Corporation, Northampton, USA). p values are indicated by * for p < 0.05, ** for p < 0.01, and *** for p < 0.001.

GluN1a wt/ GluN2B F194A = GluN1a wt/ GluN2B F194A (Rattus norvegicus, UniProt P35439+Q00960, F194A); details: fitted curve
Procedure: as §1, §2, §3, §4

GluN1b wt/ GluN2B E236A = GluN1b wt/ GluN2B E236A (Rattus norvegicus, UniProt P35439+Q00960, E236A)
Procedure: as §1, §2, §3, §4

GluN1b wt/ GluN2B F176A = GluN1b wt/ GluN2B F176A (Rattus norvegicus, UniProt P35439+Q00960, F176A)
Sequence of GluN1b wt/ GluN2B F176A (Q00960 27-1482 F176A, other chains not shown): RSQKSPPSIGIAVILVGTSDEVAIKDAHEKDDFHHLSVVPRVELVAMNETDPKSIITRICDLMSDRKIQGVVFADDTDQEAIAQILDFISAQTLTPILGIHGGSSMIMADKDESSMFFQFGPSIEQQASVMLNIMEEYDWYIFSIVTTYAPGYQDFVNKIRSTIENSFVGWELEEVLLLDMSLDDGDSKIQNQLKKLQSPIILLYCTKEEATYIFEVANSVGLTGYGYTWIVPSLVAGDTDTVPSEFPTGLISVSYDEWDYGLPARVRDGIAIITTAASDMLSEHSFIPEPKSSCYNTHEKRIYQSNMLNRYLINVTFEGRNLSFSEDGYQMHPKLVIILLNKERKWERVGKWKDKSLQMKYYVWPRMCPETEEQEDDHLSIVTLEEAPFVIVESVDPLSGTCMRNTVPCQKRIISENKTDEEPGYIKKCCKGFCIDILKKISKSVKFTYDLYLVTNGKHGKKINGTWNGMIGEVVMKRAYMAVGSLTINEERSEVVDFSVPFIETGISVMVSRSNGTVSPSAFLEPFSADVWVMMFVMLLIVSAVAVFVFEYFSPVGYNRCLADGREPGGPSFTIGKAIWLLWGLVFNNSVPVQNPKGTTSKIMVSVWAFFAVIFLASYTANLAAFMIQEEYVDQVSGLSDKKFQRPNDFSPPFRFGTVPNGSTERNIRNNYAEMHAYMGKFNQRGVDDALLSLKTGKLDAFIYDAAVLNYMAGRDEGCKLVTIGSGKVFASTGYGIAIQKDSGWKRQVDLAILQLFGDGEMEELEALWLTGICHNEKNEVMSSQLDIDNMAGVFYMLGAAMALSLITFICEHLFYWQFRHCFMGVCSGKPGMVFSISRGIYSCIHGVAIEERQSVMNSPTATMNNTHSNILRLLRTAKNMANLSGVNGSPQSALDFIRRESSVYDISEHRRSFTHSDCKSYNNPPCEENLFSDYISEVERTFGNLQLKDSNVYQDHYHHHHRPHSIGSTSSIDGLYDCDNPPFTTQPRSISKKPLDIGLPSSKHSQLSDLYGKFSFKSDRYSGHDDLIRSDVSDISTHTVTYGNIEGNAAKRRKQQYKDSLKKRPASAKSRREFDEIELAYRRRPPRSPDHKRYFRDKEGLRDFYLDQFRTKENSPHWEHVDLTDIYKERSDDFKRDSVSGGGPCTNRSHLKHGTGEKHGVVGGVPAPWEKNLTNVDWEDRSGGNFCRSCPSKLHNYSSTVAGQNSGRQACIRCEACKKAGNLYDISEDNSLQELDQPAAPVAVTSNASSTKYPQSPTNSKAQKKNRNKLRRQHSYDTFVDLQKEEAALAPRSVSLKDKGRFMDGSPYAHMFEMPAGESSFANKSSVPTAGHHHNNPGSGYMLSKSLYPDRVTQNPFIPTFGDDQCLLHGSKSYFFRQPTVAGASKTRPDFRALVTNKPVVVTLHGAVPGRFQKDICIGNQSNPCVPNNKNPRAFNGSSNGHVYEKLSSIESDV
Procedure: as §1, §2, §3, §4

GluN1b wt/ GluN2B F194A = GluN1b wt/ GluN2B F194A (Rattus norvegicus, UniProt P35439+Q00960, F194A)
Procedure: as §1, §2, §3, §4

[1] = target: GluN1b wt/ GluN2B N192A/F194A (Rattus norvegicus, UniProt P35439+Q00960, F194A/N192A)
Sequence of GluN1b wt/ GluN2B N192A/F194A (Q00960 27-1482 N192A/F194A, other chains not shown): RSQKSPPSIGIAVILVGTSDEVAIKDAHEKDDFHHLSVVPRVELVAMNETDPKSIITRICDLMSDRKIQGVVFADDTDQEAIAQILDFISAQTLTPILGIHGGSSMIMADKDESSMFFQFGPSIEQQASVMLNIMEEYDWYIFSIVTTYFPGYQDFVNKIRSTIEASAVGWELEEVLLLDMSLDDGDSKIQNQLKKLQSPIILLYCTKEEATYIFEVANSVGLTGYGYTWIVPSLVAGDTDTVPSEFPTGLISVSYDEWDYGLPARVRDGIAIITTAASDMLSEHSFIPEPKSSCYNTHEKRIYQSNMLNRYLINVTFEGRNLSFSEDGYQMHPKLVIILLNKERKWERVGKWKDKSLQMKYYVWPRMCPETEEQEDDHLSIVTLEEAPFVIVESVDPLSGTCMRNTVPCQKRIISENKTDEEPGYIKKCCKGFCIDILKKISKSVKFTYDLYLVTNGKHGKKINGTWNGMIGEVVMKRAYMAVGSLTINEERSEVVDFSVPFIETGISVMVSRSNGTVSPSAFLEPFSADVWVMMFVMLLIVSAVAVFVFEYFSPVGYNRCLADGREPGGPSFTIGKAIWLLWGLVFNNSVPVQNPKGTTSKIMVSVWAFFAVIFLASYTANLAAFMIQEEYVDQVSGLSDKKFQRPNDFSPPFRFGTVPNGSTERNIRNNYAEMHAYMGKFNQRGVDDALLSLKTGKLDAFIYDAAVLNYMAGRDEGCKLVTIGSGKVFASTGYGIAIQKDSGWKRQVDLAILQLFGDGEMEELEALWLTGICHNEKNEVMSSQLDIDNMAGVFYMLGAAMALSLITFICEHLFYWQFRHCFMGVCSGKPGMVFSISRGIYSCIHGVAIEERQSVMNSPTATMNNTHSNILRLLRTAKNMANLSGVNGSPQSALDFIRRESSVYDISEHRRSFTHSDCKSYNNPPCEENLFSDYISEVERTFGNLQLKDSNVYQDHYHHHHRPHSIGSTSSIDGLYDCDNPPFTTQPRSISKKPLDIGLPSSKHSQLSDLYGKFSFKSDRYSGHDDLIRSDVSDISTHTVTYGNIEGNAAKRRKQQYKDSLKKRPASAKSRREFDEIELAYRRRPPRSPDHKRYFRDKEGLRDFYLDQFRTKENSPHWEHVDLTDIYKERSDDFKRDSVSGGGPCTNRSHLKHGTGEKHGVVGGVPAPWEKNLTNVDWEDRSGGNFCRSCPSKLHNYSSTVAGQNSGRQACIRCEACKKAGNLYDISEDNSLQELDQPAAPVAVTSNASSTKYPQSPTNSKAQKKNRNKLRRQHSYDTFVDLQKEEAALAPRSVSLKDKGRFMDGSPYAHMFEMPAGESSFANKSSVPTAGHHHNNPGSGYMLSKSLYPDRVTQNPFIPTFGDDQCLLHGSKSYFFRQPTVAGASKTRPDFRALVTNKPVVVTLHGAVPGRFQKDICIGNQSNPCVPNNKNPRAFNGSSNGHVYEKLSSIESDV
Procedure: as §1, §2, §3, §4

GluN1b wt/ GluN2B Q110A = GluN1b wt/ GluN2B Q110A (Rattus norvegicus, UniProt P35439+Q00960, Q110A)
Sequence of GluN1b wt/ GluN2B Q110A (Q00960 27-1482 Q110A, other chains not shown): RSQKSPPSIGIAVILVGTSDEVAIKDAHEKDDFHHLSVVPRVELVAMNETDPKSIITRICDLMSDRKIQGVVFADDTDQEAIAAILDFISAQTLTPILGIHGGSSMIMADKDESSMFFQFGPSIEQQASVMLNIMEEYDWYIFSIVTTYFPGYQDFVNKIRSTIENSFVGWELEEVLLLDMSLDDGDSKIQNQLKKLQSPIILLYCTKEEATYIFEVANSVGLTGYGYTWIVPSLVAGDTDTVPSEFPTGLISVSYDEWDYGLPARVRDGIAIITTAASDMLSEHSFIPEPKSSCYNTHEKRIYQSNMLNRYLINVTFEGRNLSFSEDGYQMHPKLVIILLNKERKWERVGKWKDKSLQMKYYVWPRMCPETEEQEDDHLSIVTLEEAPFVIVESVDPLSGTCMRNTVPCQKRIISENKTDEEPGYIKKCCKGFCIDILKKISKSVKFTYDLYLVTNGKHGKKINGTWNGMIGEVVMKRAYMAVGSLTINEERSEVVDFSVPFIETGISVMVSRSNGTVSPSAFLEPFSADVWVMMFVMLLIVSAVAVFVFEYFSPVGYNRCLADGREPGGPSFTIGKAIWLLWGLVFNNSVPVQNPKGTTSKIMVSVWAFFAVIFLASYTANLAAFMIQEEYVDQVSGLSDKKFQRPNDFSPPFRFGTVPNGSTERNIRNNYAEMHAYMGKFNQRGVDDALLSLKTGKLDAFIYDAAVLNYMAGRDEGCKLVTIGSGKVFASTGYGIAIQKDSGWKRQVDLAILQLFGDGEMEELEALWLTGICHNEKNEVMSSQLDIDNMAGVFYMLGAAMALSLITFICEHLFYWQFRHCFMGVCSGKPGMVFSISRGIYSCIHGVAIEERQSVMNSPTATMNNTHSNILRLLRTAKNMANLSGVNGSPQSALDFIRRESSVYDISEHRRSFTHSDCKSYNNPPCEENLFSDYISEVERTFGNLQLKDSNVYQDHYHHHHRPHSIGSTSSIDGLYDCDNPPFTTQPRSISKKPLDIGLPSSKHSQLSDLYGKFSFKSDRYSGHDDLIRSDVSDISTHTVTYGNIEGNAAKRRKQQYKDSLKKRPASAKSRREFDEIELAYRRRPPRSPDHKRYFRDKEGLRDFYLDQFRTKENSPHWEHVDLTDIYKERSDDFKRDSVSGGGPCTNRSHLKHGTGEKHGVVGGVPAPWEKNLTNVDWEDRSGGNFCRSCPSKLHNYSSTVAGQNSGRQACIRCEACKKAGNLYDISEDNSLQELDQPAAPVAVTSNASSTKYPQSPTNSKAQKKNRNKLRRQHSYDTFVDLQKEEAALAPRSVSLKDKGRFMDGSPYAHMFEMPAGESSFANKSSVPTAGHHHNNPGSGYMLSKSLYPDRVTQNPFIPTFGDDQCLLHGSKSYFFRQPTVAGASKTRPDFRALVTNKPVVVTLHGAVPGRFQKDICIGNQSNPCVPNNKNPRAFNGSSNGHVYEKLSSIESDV
Procedure: as §1, §2, §3, §4

[2] = target: GluN1a wt/ GluN2B N192A/F194A (Rattus norvegicus, UniProt P35439+Q00960, F194A/N192A)
[3] = agonists 10 µM glycine + 10 µM (S)-glutamate
[4] = agonists 10 µM glycine + 10 µM (S)-glutamate, fitted curve

IC50 (GluN1a wt/ GluN2B F114A; [3]): 6.58 µM
Hill coefficient (GluN1a wt/ GluN2B F114A): 0.8
Hill coefficient (GluN1a wt/ GluN2B F176A): 0.5
IC50 (GluN1a wt/ GluN2B F194A; [3]): 16.6 µM
Hill coefficient (GluN1a wt/ GluN2B F194A): 0.4
inhibition at 1 µM (GluN1b wt/ GluN2B E236A; GluN1-1b/E236A, compound concentration 1 μM, single oocytes): 39.5%
inhibition at 10 µM (GluN1b wt/ GluN2B E236A; GluN1-1b/E236A, compound concentration 10 μM, single oocytes): 51.9%
inhibition at 30 µM (GluN1b wt/ GluN2B E236A; GluN1-1b/E236A, compound concentration 30 μM, single oocytes): 61.6%
IC50 (GluN1b wt/ GluN2B E236A; [4]): 3.15 µM
Hill coefficient (GluN1b wt/ GluN2B E236A; fitted curve): 0.6
inhibition at 1 µM (GluN1b wt/ GluN2B F176A; GluN1-1b/F176A, compound concentration 1 μM, single oocytes): 17.7%
inhibition at 10 µM (GluN1b wt/ GluN2B F176A; GluN1-1b/F176A, compound concentration 10 μM, single oocytes): 29.9%
IC50 (GluN1b wt/ GluN2B F176A; [4]): 13.6 µM
Hill coefficient (GluN1b wt/ GluN2B F176A; fitted curve): 0.5
inhibition at 1 µM (GluN1b wt/ GluN2B F194A; GluN1-1b GluN2B F194A, compound concentration 1 μM, single oocytes): 39.3%
inhibition at 30 µM (GluN1b wt/ GluN2B F194A; GluN1-1b GluN2B F194A, compound concentration 30 μM, single oocytes): 51.8%
IC50 (GluN1b wt/ GluN2B F194A; [4]): 3.84 µM
Hill coefficient (GluN1b wt/ GluN2B F194A; fitted curve): 0.5
inhibition at 1 µM ([1]; GluN1-1b GluN2B N192A/F194A, compound concentration 1 μM, single oocytes): 23.8%
inhibition at 10 µM ([1]; GluN1-1b GluN2B N192A/F194A, compound concentration 10 μM, single oocytes): 35.6%
inhibition at 30 µM ([1]; GluN1-1b GluN2B N192A/F194A, compound concentration 30 μM, single oocytes): 37%
IC50 [1, 4]: 7.52 µM
Hill coefficient ([1]; fitted curve): 0.3
inhibition at 10 µM (GluN1b wt/ GluN2B Q110A; GluN1-1b/Q110A, compound concentration 10 μM, single oocytes): 78.4%
inhibition at 30 µM (GluN1b wt/ GluN2B Q110A; GluN1-1b/Q110A, compound concentration 30 μM, single oocytes): 84.2%
IC50 (GluN1b wt/ GluN2B Q110A; [4]): 0.519 µM
Hill coefficient (GluN1b wt/ GluN2B Q110A; fitted curve): 1.2
inhibition at 1 µM ([2]; GluN1-1a GluN2B N192A/F194A, compound concentration 1 μM, single oocytes): 30.7%
inhibition (%) ([2]; GluN1-1a GluN2B N192A/F194A, compound concentration 1 μM, single oocytes, 1 µM): 27.3896% and 29.45% and 20.653%
inhibition at 30 µM ([2]; GluN1-1a GluN2B N192A/F194A, compound concentration 30 μM, single oocytes): 50.8%
inhibition (%) ([2]; GluN1-1a GluN2B N192A/F194A, compound concentration 30 μM, single oocytes, 30 µM): 42.6495% and 45.6455% and 35.2023%
Hill coefficient ([2]; fitted curve): 0.3
SMILES: Oc1ccc2c(c1)CCN(CCCCc1ccccc1F)C[C@@H]2O [(R)-OF-NB1]
inhibition (%) ([2]; GluN1-1a GluN2B N192A/F194A, compound concentration 10 μM, single oocytes, 10 µM): 48.3548% and 37.2275% and 43.7739% and 28.318%
